Patent publication US20250387504A1, “ANTIBODY-DRUG CONJUGATES OF ANTINEOPLASTIC COMPOUNDS AND METHODS OF USE THEREOF” (Novartis AG, priority 2022, published 2025)

B1: Disitamab-P5-L12-P7 (antibody, INN chains, looked up, V domains shown)
VH: EVQLVQSGAEVKKPGATVKISCKVSGYTFTDYYIHWVQQAPGKGLEWMGRVNPDHGDSYYNQKFKDKATITADKSTDTAYMELSSLRSEDTAVYFCARNYLFDHWGQGTLVTVSS
VL: DIQMTQSPSSVSASVGDRVTITCKASQDVGTAVAWYQQKPGKAPKLLIYWASIRHTGVPSRFSGSGSGTDFTLTISSLQPEDFATYYCHQFATYTFGGGTKVEIK
modifications: BCLxLi/TOPOi dual payload P5-L12-P7
B2: Datopotamab-P5-L12-P7 (antibody, INN chains, looked up, V domains shown)
VH: QVQLVQSGAEVKKPGASVKVSCKASGYTFTTAGMQWVRQAPGQGLEWMGWINTHSGVPKYAEDFKGRVTISADTSTSTAYLQLSSLKSEDTAVYYCARSGFGSSYWYFDVWGQGTLVTVSS
VL: DIQMTQSPSSLSASVGDRVTITCKASQDVSTAVAWYQQKPGKAPKLLIYSASYRYTGVPSRFSGSGSGTDFTLTISSLQPEDFAVYYCQQHYITPLTFGQGTKLEIK
modifications: BCLxLi/TOPOi dual drug-linker P5-L12-P7
B3: Datopotamab-mono-L3-P8 (antibody, INN chains, looked up, V domains shown)
VH: B2 VH
VL: B2 VL
modifications: TOPOi mono-loaded drug-linker L3-P8

Experiments:
[1] = system: T-ALL (T-cell Acute Lymphoblastic Leukemia) and different types of solid tumors; details: cited from earlier work
lymphoid malignancies = details: cited from earlier work
[2] = system: hematological malignancies and solid tumors; details: several hematological malignancies and solid tumors; cited from earlier work
allogeneic T-cell = details: in vitro; cited from earlier work
[3] = system: animal models of arthritis and lupus; details: mice; cited from earlier work
lymphocyte proliferation = details: in vitro; cited from earlier work
[4] = system: allogeneic T- and B-cell responses; details: after skin transplantation; cited from earlier work
RL = test: CellTiter-Glo proliferation assay, CD48 MCL-1 and BCL-2 ADCs (Example 4); details: Homo sapiens, 120 h, read-out: RL IC50 (nM)
Description: (§3) The ability of the MCL-1 and BCL-2 antibody drug conjugates to inhibit cell proliferation and survival was assessed using the Promega CellTiter-Glo® proliferation assay.
(§4) Cell lines were cultured in media that is optimal for their growth at 5% CO2, 37° C. in a tissue culture incubator. Prior to seeding for the proliferation assay, the cells were split at least 2 days before the assay to ensure optimal growth density. On the day of seeding, cell viability and cell density were determined using a cell counter (Vi-Cell XR Cell Viability Analyzer, Beckman Coulter). […] Cells were seeded at a density of 1,000 cells per well in 45 μL of standard growth media. Plates were incubated at 5% CO2, 37° C. overnight in a tissue culture incubator. The next day, free MCL-1 and BCL-2 payloads, targeting MCL-1 and BCL-2 ADCs, and non-targeting isotype ADCs free MCL-1 and BCL-2 payloads, were prepared at 10× in standard growth media. […] Each drug concentration was tested in quadruplets. Plates were incubated at 5% CO2, 37° C. for 5 days in a tissue culture incubator, after which cell viability was assessed through the addition of 25 L μof CellTiter Glo® (Promega, cat #G7573), a reagent which lyses cells and measures total adenosine triphosphate (ATP) content. Plates were incubated at room temperature for 10 minutes to stabilize luminescent signals prior to reading using a luminescence reader (EnVision Multilabel Plate Reader, PerkinElmer). To evaluate the effect of the drug treatments, luminescent counts from wells containing untreated cells (100% viability) were used to normalize treated samples. […] IC50 and Amax values were extrapolated from the resultant curves.

Kasumi-6 = test: CellTiter-Glo proliferation assay, CD74 MCL-1/BCL-xL and BCL-xL ADCs (Example 6); type: cell-based; details: Table 4 CD74 ADC, 5 days; for IC50: 120 h, 0.01-600 nM
Description: (§1) The CD74 MCL-li and BCL-xLi antibody drug conjugates and the CD74 BCL-xL antibody drug conjugates were tested against two endogenous cancer cell lines. • Kasumi-6: ATCC No. CRL-2775 cultured in RPMI 1640 medium with 2 mM L-glutamine adjusted to contain 1.5 g/L sodium bicarbonate, 4.5 g/L glucose, 10 mMv HEPES, and 1.0 mM sodium pyruvate supplemented with 2 ng/ml human recombinant granulocyte macrophage colony stimulating factor (GM-CSF) and 20% FBS • EOL-1: DSMZ No. ACC-386 cultured in RPMI-1640+10% FBS
(§2) The next day, free MCL-1 payload (P1), free BCL-xL payload (P5 and P6) and targeting MCL-1 and BCL-xL ADCs and targeting BCL-xL ADCs were prepared at 10X in standard growth media. […] Each drug concentration was tested in quadruplets.

EOL-1 [5] = test: as above; type: cell-based; details: Table 4 CD74 ADC, 5 days; for IC50: Homo sapiens, EOL1, 120 h, 0.01-600 nM
Description: as §1, §2

NCI-H929 = test: CellTiter-Glo proliferation assay, CD48 MCL-1 and BCL-2 ADCs (Example 4); details: Homo sapiens, NCI-H929, 120 h, read-out: NCI-H929 IC50 (nM)
Description: as §3, §4

KMS-27 [6] = test: as above; details: KMS-27, 120 h, read-out: KMS-27 IC50 (nM)
Description: as §3, §4

KE-97 = test: as above; details: KE-97, 120 h, read-out: Ke97 IC50 (nM)
Description: as §3, §4

KMS-27 [7] = test: CellTiter-Glo proliferation assay, CD48 MCL-1/BCL-xL and BCL-xL ADCs (Example 6); type: cell-based; details: Table 3 CD48 ADC, 5 days; for IC50: KMS-27, 120 h, 0.01-600 nM
Description: as §2

AMO-1 [8] = test: as above; type: cell-based; details: Table 3 CD48 ADC, 5 days
Description: as §2

WSU-DLCL2 = test: CellTiter-Glo proliferation assay, CD48 MCL-1 and BCL-2 ADCs (Example 4); details: Homo sapiens, WSUDLCL2, 120 h, read-out: WSU-DLCL2 IC50 (nM)
Description: as §3, §4

EOL-1 [9] = test: CellTiter-Glo proliferation assay, CD74 Milatuzumab MCL-1i and BCL2i ADCs (Example 5); type: cell-based; details: EOL-1, 5 days, 0.008-150 nM
Description: The CD74 Milatuzumab […] […] The next day, free MCL-1 payload (P1) and targeting MCL-1 and BCL-2 ADCs were prepared at 10X in standard growth media. […] Each drug concentration was tested in quadruplets.

KMS-21-BM = test: CellTiter-Glo proliferation assay, CD48 MCL-1 and BCL-2 ADCs (Example 4); details: 120 h, read-out: KMS-21-BM IC50 (nM)
Description: as §3, §4

[10] = system: cancer cell lines expressing CD48, CD74, EphA2, Her2 and PCAD; test: CellTiter-Glo proliferation assay, summary over the Example 6 cell lines; type: cell-based; details: representative CD48 and CD74 cancer cell lines; read-out: IC50 values range
Description: as §1
The EphA2 antibody drug conjugates were tested against one endogenous cancer cell line. • HCC-38: ATCC No. CRL-2314 cultured in RPMI-1640+10% FBS
as §2

AMO-1 [11] = test: CellTiter-Glo proliferation assay, CD48 MCL-1 and BCL-2 ADCs (Example 4); details: Homo sapiens, AMO1, 120 h, read-out: AMO-1 IC50 (nM)
Description: as §3, §4

KHM-1B = test: as above; details: 120 h, read-out: KHM-1B IC50 (nM)
Description: as §3, §4

MOLP-8 = test: as above; details: Homo sapiens, MOLP-8, 120 h, read-out: MOLP-8 IC50 (nM)
Description: as §3, §4

HER2 = HER2 (UniProt P04626); test: cell-based or functional assay
TROP2 (human) = TROP2 (human) (UniProt P09758); test: cell-based or functional assay
TROP2 (human), sequence (P09758 27-323): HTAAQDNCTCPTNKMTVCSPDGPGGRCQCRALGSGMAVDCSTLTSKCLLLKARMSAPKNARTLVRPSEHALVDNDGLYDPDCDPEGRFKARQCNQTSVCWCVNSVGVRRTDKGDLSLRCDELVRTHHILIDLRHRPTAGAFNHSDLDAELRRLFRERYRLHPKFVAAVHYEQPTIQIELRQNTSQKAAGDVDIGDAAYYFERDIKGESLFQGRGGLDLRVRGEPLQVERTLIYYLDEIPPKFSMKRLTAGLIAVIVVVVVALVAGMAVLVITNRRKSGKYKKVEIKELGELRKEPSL

Row | Molecule | IC50 (RL) [nM] | IC50 (NCI-H929) [nM] | IC50 (KMS-27 [6]) [nM] | IC50 (KE-97) [nM] | IC50 (WSU-DLCL2) [nM] | IC50 (KMS-21-BM) [nM] | IC50 (AMO-1 [11]) [nM] | IC50 (KHM-1B) [nM] | IC50 (MOLP-8) [nM] | also measured
1 | CN(C)CC#Cc1ccc(OCCCc2sc(N3CCc4cccc(C(=O)Nc5nc6ccccc6s5)c4C3)nc2C(=O)O)c(F)c1 [A-1155463] |  |  |  |  |  |  |  |  |  | in vivo activity in pre-clinical models [1]: in vivo activity
2 | Cc1c(-c2ccc(N3CCc4cccc(C(=O)Nc5nc6ccccc6s5)c4C3)nc2C(=O)O)cnn1CC12CC3CC(CC(C3)C1)C2 [A-1331852] |  |  |  |  |  |  |  |  |  | in vivo activity in pre-clinical models [1]: in vivo activity
3 | CC1(C)CCC(c2ccc(Cl)cc2)=C(CN2CCN(c3ccc(C(=O)NS(=O)(=O)c4ccc(N[C@H](CCN5CCOCC5)CSc5ccccc5)c(S(=O)(=O)C(F)(F)F)c4)cc3)CC2)C1 [ABT-263, navitoclax] |  |  |  |  |  |  |  |  |  | antitumor activity in clinical studies (lymphoid malignancies): objective antitumor activity; activity in pre-clinical models [2]: shown activity
4 | CN(C)CC[C@H](CSc1ccccc1)Nc1ccc(S(=O)(=O)NC(=O)c2ccc(N3CCN(Cc4ccccc4-c4ccc(Cl)cc4)CC3)cc2)cc1[N+](=O)[O-] [ABT-737] |  |  |  |  |  |  |  |  |  | allogeneic T-cell activation, proliferation, and cytotoxicity (allogeneic T-cell): prevented; disease severity [3]: significant decrease in disease severity; inhibition of lymphocyte proliferation (lymphocyte proliferation): potent inhibition; allogeneic T- and B-cell responses [4]: inhibited
5 | COc1ccccc1-c1nccc(COc2ccccc2C[C@@H](Oc2ncnc3sc(-c4ccc(F)cc4)c(-c4ccc(OCCN5CCN(C)CC5)c(Cl)c4C)c23)C(=O)O)n1 [P1] | > 250 | 5.17 | 13.3 | > 250 | 41.1 | 1.66 | 4.7 | 1.62 | 6.17 | IC50 (Kasumi-6): 36 nM; Kasumi-6 Amax (Span) (Kasumi-6): 111.4; IC50 (EOL-1 [5]): 0.685 nM; EOL-1 Amax (Span) (EOL-1 [5]): 98.4; IC50 (KMS-27 [7]): 5.23 nM; KMS-27 Amax (Span) (KMS-27 [7]): 96.7; IC50 (AMO-1 [8]; Homo sapiens, AMO1, 120 h, 0.01-600 nM): 3.8 nM; AMO-1 Amax (Span) (AMO-1 [8]): 95.8; Amax (Span) (EOL-1 [9]): 88.6; IC50 (EOL-1 [9]; Homo sapiens, EOL1, 120 h): 0.338 nM; IC50 [10]: 0.685 to 36 nM
6 | Cc1c(N(C(=O)c2cc(-c3cc(Cl)ccc3C(=O)N3Cc4ccccc4C[C@H]3CCCN(C)C)n(C)c2C)c2ccc(O)cc2)cc(C#N)n1C [P2, 5-[5-chloro-2-[(3R)-3-[3-(dimethylamino)propyl]-3,4-dihydro-1H-isoquinoline-2-carbonyl]phenyl]-N-(5-cyano-1,2-dimethyl-pyrrol-3-yl)-N-(4-hydroxyphenyl)-1,2-dimethyl-pyrrole-3-carboxamide] | 6.26 | > 250 | 0.316 | > 250 | 3.77 | > 100 | > 250 | > 10 | > 250 | 
7 | Cc1c(C(=O)N(c2ccc(O)cc2)c2cnn(C(F)F)c2)cc(-c2cc3c(cc2C(=O)N2Cc4ccccc4C[C@H]2C)CN(C(=O)Cc2ccc(OCCN4CCOCC4)cc2)CC3)n1C [P3] | 11.8 | > 250 | 3.91 | > 250 | 5.41 | > 100 | > 250 | > 10 | > 250 | 
8 | Cc1c(N(C(=O)c2cc(-c3cc4c(cc3C(=O)N3Cc5ccccc5C[C@H]3C)CN(C(=O)Cc3ccc(OCCN5CCOCC5)cc3)CC4)n(C)c2C)c2ccc(O)cc2)cc(C#N)n1C [P4, N-(5-cyano-1,2-dimethyl-1H-pyrrol-3-yl)-N-(4-hydroxyphenyl)-1,2-dimethyl-5-{7-[(3R)-3-methyl-1,2,3,4-tetrahydroisoquinoline-2-carbonyl]-2-(2-{4-[2-(morpholin-4-yl)ethoxy]phenyl}acetyl)-1,2,3,4-tetrahydroisoquinolin-6-yl}-1H-pyrrole-3-carboxamide] | 1.26 | > 250 | 0.999 | > 250 | 4.17 | > 100 | > 250 | > 10 | > 250 | 
9 | Cc1c(Nc2nc3ccccc3s2)nnc2c1CCCN2c1ccc(-c2cnn(CC34CC5(C)CC(C)(C3)CC(OCCNCCCO)(C5)C4)c2C)c(C(=O)O)n1 [P5, 6-[3-(1,3-benzothiazol-2-ylamino)-4-methyl-6,7-dihydro-5H-pyrido[2,3-c]pyridazin-8-yl]-3-[1-[[3-[2-(3-hydroxypropylamino)ethoxy]-5,7-dimethyl-1-adamantyl]methyl]-5-methyl-pyrazol-4-yl]pyridine-2-carboxylic acid] |  |  |  |  |  |  |  |  |  | IC50 (Kasumi-6): 11.9 nM; Kasumi-6 Amax (Span) (Kasumi-6): 84.5; IC50 (EOL-1 [5]): 0.488 nM; EOL-1 Amax (Span) (EOL-1 [5]): 94.9; IC50 (KMS-27 [7]): < 5 nM
10 | Cc1c(Nc2nc3ccccc3s2)nnc2c1CCCN2c1nc(C(=O)O)c(CCCOc2ccc(C#CCN(C)C)cc2F)s1 [P6, 2-[3-(1,3-Benzothiazol-2-ylamino)-4-methyl-6,7-dihydro-SH-pyrido[2,3-c]pyridazin-8-yl]-5-[3-[4-[3-(dimethylamino)prop-1-ynyl]-2-fluoro-phenoxy]propyl]thiazole-4-carboxylic acid] |  |  |  |  |  |  |  |  |  | IC50 (Kasumi-6): < 10 nM; IC50 (EOL-1 [5]): < 10 nM; IC50 (KMS-27 [7]): 7.89 nM; KMS-27 Amax (Span) (KMS-27 [7]): 93.7
11 | B1 |  |  |  |  |  |  |  |  |  | IC50 (nM), inhibition of cell proliferation and survival (CellTiter-Glo), UACC-812 cells (HER2): 0.191 nM
12 | B2 |  |  |  |  |  |  |  |  |  | IC50 (nM), NCI-H441 (TROP2 (human)): 0.692 nM
13 | B3 |  |  |  |  |  |  |  |  |  | IC50 (nM), NCI-H441 (TROP2 (human)): < 5 nM
